{
  "source": "patent US8283355B2",
  "about": "“Pyrimidine derivatives as POSH and POSH-AP inhibitors” (Proteologics, Ltd., priority 2006, dated 2012)",
  "key": {"[1]": {"experiment": "Compound cytotoxicity in CEM-SS cells (MTS)", "format": "cell-based", "conditions": "human, read-out: TC50 (concentration resulting in 50% cell death)", "method": "(§1) For the HIV cytoprotection assay, CEM-SS cells were used and the viruses HIV-1IIIb, HIV-1RF, or HIV-2ROD.\n(§2) Briefly, virus and cells were mixed in the presence of a test compounds and incubated for 6 days. […] Each assay plate contained the following controls: cell control wells (cells only), virus control wells (cells plus virus), compound toxicity control wells (cells plus compound only), compound calorimetric control wells (compound only), as well as the experimental wells (compound plus cells plus virus). Cytoprotection and compound cytotoxicity were assessed by MTS (CellTiter® 96 Reagent, Promega, Madison Wis.) dye reduction, and the IC50 (concentration inhibiting virus replication by 50%), TC50 (concentration resulting in 50% cell death) and a calculated TI (therapeutic index TC50/IC50) were obtained. Each assay included the HIV reverse transcriptase inhibitor AZT as a positive control."}, "GST tagged hPOSH": {"biological_target": "T1, GST tagged hPOSH (Homo sapiens, UniProt Q7Z6J0)", "T1 construct": "a fused GST-RING subunit of POSH protein", "T1 sequence (Q7Z6J0 12-53 limits assumed)": "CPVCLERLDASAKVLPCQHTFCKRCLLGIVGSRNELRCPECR", "experiment": "HTS TR-FRET assay of POSH autoubiquitination", "format": "biochemical", "conditions": "GST tagged hPOSH with E1, UbCH5c, ubiquitin-cryptate, read-out: IC50 (POSH autoubiquitination, in vitro assay)", "method": "In order to test compounds as inhibitors of POSH, a ubiquitin protein ligase (E3) containing a RING domain that mediates its own ubiquitination in a RING finger-dependent manner in the presence of E1 and E2, a HTS (high-throughput screening) homogeneous TR-FRET (Time-Resolved Fluorescence Resonance Energy Transfer) assay was conducted to monitor POSH autoubiquitination.\nThe assay employs an ubiquitin-activating enzyme (E1) and an ubiquitin-conjugating enzyme (E2), a fused GST-RING subunit of POSH protein and two fluorophore-conjugated detection reagents, namely anti-GSTXL665 and europium cryptate-labeled ubiquitin. This homogeneous assay is based on FRET between a Eu^3+ cryptate donor and a second fluorescent label (acceptor), allophycocyanin. Allophycocyanin, a 105 kDa phycobiliprotein, is crosslinked to ensure its stability.\nThe ubiquitination of POSH by ubiquitin cryptate and binding of the anti-GST tagged XL665 brings the fluorophores into close proximity allowing FRET reaction to occur.\nSelf-ubiquitination of hPOSH was determined by homogenous time-resolved fluorescence resonance energy transfer assay (TR-FRET). […]\nwhere: S=actual fluorescence, B=Fluorescence obtained in parallel incubation without […], C=Fluorescence obtained in reaction without added compounds. […]"}, "HIV-1IIIB": {"system": "HIV-1IIIB", "experiment": "HIV cytoprotection assay, HIV-1IIIB in CEM-SS cells (MTS)", "format": "cell-based", "conditions": "for IC50: read-out: IC50 (concentration inhibiting virus replication by 50%)", "method": "as §1, §2"}, "[2]": {"system": "HIV-1 p24 release from Jurkat cells", "experiment": "Assay for virus release (HIV-1 p24 / VLP release from transfected Jurkat cells)", "format": "cell-based", "conditions": "Human immunodeficiency virus 1, Jurkat, 24 h, read-out: IC50 in the virus release assay", "method": "The POSH inhibitor Compound 1 was tested for its efficiency of viral budding and GAG expression and processing in treated and untreated Jurkat cells. The concentration of extracellular GAG p24 was used as an indication of viral budding.\nJurkat cells were incubated with Compound 1 (5 μM) for either 1 or 3 days. The next day, cells were transfected with the plasmid pNLenyl (2 μg/ml). Virus-like particle (VLP) release was determined one day after transfection as follows: the culture medium of virus-expressing cells was collected and centrifuged at 500×g for 10 minutes. The resulting supernatant was passed through a 0.45 μm-pore filter and the filtrate was centrifuged at 14,000×g for 2 hours at 4° C. The corresponding cells were washed three times with phosphate-buffered saline (PBS) and then solubilized by incubation on ice for 15 minutes in lysis buffer containing the following components: […] Hepes-NaOH, (pH 7.5), 150 mM NaCl, 1.5 mM MgCl2, 0.3% NP-40, 0.5% sodium deoxycholate, 1 mM EDTA, 1 mM EGTA and 1:200 dilution of protease inhibitor cocktail (EMD Biosciences, Inc.). The cell detergent extract was then centrifuged for 15 minutes at 14,000×g at 4° C. […] Enhanced Chemi-Luminescence (ECL) (Amersham Biosciences, Corp.) was then detected by fluorescence imaging (Typhoon Instrument, Amersham Biosciences, Corp.)."}, "HIV-2ROD": {"system": "HIV-2ROD", "experiment": "HIV cytoprotection assay, HIV-2ROD in CEM-SS cells (MTS)", "format": "cell-based", "conditions": "for IC50: read-out: IC50 (concentration inhibiting virus replication by 50%)", "method": "as §1, §2"}, "[3]": {"conditions": "Human immunodeficiency virus 1, 144 h, HIV-1IIIB, CEM-SS cells, 6 days"}},
  "note": "Like-named read-outs stand apart in the source and are kept apart here.",
  "data": [
    {"smiles": "Cc1cc(C)nc(NS(=O)(=O)c2ccc(NC(=O)/C(=C\\c3cccs3)NC(=O)c3cccs3)cc2)n1", "note": "[Compound 1]", "values": [
      {"measurement": "CC50 at 6 days", "setting": "[1]; Table 1 (HIV-1IIIB experiment)", "result": "> 100", "unit": "µM"},
      {"measurement": "CC50 at 6 days", "setting": "[1]; Table 2 (HIV-2ROD experiment)", "result": "> 300", "unit": "µM"},
      {"measurement": "IC50", "setting": "GST tagged hPOSH", "result": 2, "unit": "µM"},
      {"measurement": "Antiviral Index (TI), TC50/IC50", "setting": "HIV-1IIIB; HIV-1IIIB, CEM-SS cells", "result": ">2.07"},
      {"measurement": "IC50", "setting": "HIV-1IIIB; Human immunodeficiency virus 1, CEM-SS, 144 h", "result": 48, "unit": "µM"},
      {"measurement": "IC50", "setting": "[2]", "result": 48, "unit": "µM"},
      {"measurement": "Antiviral Index (TI), TC50/IC50", "setting": "HIV-2ROD; HIV-2ROD, CEM-SS cells", "result": ">5.68"},
      {"measurement": "IC50", "setting": "HIV-2ROD; Human immunodeficiency virus 2, CEM-SS, 144 h", "result": 52.8, "unit": "µM"}
    ]},
    {"smiles": "O=C(Nc1ccc(S(=O)(=O)Nc2ncccn2)cc1)/C(=C\\c1cccs1)NC(=O)c1cccs1", "note": "[Compound 2]", "values": [
      {"measurement": "CC50 at 6 days", "setting": "[1]; Table 1 (HIV-1IIIB experiment)", "result": 114, "unit": "µM"},
      {"measurement": "CC50 at 6 days", "setting": "[1]; Table 2 (HIV-2ROD experiment)", "result": "> 300", "unit": "µM"},
      {"measurement": "Antiviral Index (TI), TC50/IC50", "setting": "HIV-1IIIB; HIV-1IIIB, CEM-SS cells", "result": 28.5},
      {"measurement": "IC50", "setting": "HIV-1IIIB; [3]", "result": 3.99, "unit": "µM"},
      {"measurement": "Antiviral Index (TI), TC50/IC50", "setting": "HIV-2ROD; HIV-2ROD, CEM-SS cells", "result": ">10.2"},
      {"measurement": "IC50", "setting": "HIV-2ROD; Human immunodeficiency virus 2, 144 h, HIV-2ROD, CEM-SS cells, 6 days", "result": 29.5, "unit": "µM"}
    ]},
    {"smiles": "Cc1ccnc(NS(=O)(=O)c2ccc3c(c2)CCN3C(=O)/C(=C\\c2cccs2)NC(=O)c2cccs2)n1", "note": "[Compound 5]", "values": [
      {"measurement": "CC50 at 6 days", "setting": "[1]; Table 1 (HIV-1IIIB experiment)", "result": "> 300", "unit": "µM"},
      {"measurement": "Antiviral Index (TI), TC50/IC50", "setting": "HIV-1IIIB; HIV-1IIIB, CEM-SS cells", "result": ">105"},
      {"measurement": "Effectiveness as anti-HIV-1IIIB agent compared to Compounds 1 and 2", "setting": "HIV-1IIIB; HIV-1IIIB, CEM-SS cells", "result": "far more effective"},
      {"measurement": "IC50", "setting": "HIV-1IIIB; [3]", "result": 2.85, "unit": "µM"}
    ]}
  ]
}
